Where a name gives a salt, the structure may show the parent alone. Read-outs that look alike come from different tables or passages of the source.
What was measured:
[1] = tested on: E. coli S30 extract (bacterial protein synthesis); test: E. coli S30 extract coupled transcription-translation luciferase assay (inhibition of bacterial protein synthesis); format: biochemical; conditions: class by IC50 or % inhibition @ 1 μM, read-out: S30 IC50 (μM/% inhib.)
Outline: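 Cell-free coupled transcription-translation in E. coli S30 circular-DNA extract, with pBESTluc plasmid as template and complete amino acid mix. Eight 2-fold compound dilutions were incubated with the extract 1 h at 37 °C, chilled, then luciferase luminescence was read. % inhibition was taken relative to no-inhibitor wells; no-DNA wells gave background.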

[2] = molecular target: Rabbit Reticulocyte Lysate (eukaryotic protein synthesis); test: Rabbit reticulocyte lysate luciferase assay (inhibition of eukaryotic protein synthesis); format: biochemical; conditions: class by IC50 or % inhibition @ 1 μM, read-out: Rabbit reticulocyte IC50 (μM/% inhib.)
Outline: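 Nuclease-treated rabbit reticulocyte lysate translating luciferase control RNA, with complete amino acids, was incubated at 30° C. for 90 minutes with 2-fold serial compound dilutions. Luminescence was measured after adding luciferase reagent. % inhibition was relative to water controls, with no-RNA wells as background.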

P. aeruginosa (Pa) = test: Broth microdilution minimum inhibitory concentration (MIC); format: cell-based; conditions: for MIC: Pseudomonas aeruginosa, read-out: Pa MIC + bicarb
Outline: (§1)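 CLSI broth microdilution with 8 two-fold compound dilutions in CAMHB, or CAMHB plus sodium bicarbonate (6.25 or 25 mM final) or heat-inactivated human serum (0–50%). Inoculum 5×10^4 CFU/well from 0.5 McFarland cultures grown at 35±2° C; tested in triplicate.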

S. aureus (Sa) = test: as above; format: cell-based; conditions: Staphylococcus aureus, read-out: Sa + bicarb MIC
Outline: as §1

E. coli (Ec) = test: as above; format: cell-based; conditions: Escherichia coli, read-out: E. coli + bicarb MIC
Outline: as §1

A. baumannii (Ab) = test: as above; format: cell-based; conditions: Acinetobacter baumannii, read-out: Ab + bicarb MIC
Outline: as §1

E. faecalis (Ef) = test: as above; format: cell-based; conditions: Enterococcus faecalis, read-out: Ef + bicarb MIC
Outline: as §1

[3] = P. aeruginosa, growth medium with sodium bicarbonate
[4] = S. aureus, growth medium with sodium bicarbonate
[5] = E. coli, growth medium with sodium bicarbonate
[6] = A. baumannii, growth medium with sodium bicarbonate
[7] = E. faecalis, growth medium with sodium bicarbonate
[8] = P. aeruginosa, growth medium supplemented with sodium bicarbonate
[9] = S. aureus, growth medium supplemented with sodium bicarbonate
[10] = E. coli, growth medium supplemented with sodium bicarbonate
[11] = A. baumannii, growth medium supplemented with sodium bicarbonate
[12] = E. faecalis, growth medium supplemented with sodium bicarbonate

Row | SMILES | IC50 [1] [µM] | IC50 [2] [µM] | MIC (P. aeruginosa (Pa)) [µg/mL] | MIC (S. aureus (Sa)) [µg/mL] | MIC (E. coli (Ec)) [µg/mL] | MIC (A. baumannii (Ab)) [µg/mL] | MIC (E. faecalis (Ef)) [µg/mL] | MIC (P. aeruginosa (Pa); [3]) [µg/mL] | MIC (S. aureus (Sa); [4]) [µg/mL] | MIC (E. coli (Ec); [5]) [µg/mL] | MIC (A. baumannii (Ab); [6]) [µg/mL] | MIC (E. faecalis (Ef); [7]) [µg/mL] | MIC (P. aeruginosa (Pa); [8]) [µg/mL] | MIC (S. aureus (Sa); [9]) [µg/mL] | MIC (E. coli (Ec); [10]) [µg/mL] | MIC (A. baumannii (Ab); [11]) [µg/mL] | MIC (E. faecalis (Ef); [12]) [µg/mL] | Pa MIC + bicarb (P. aeruginosa (Pa); [3])
1 | CCN(Cc1ccc(-n2ccc(NC(=O)N3CCN(C(=O)C(C)(C)N)CC3)nc2=O)cc1)[C@H]1CC[C@H](N)[C@@H](OC)C1 [Compound 341, hydrochloride salt] | 0.5 to 1 | > 1 | > 32 | 8 to 32 | 8 to 32 | > 32 | > 32 |  |  |  |  |  |  |  |  |  |  | 
2 | CC(C)(N)C(=O)N1CCN(C(=O)Nc2ccn(-c3ccc(OCCN4CCCC(N)CC4)cc3)c(=O)n2)CC1 (stereo not shown) [Compound 187] | < 0.5 | > 1 |  |  |  |  |  | > 32 | < 8 | < 8 | 8 to 32 | < 8 |  |  |  |  |  | 
3 | CC(C)(N)C(=O)N1CCN(C(=O)Nc2ccn(-c3ccc(CN4CC(O)(CN)C4)cc3)c(=O)n2)CC1 [Compound 137] | < 0.5 | > 1 |  |  |  |  |  |  |  |  |  |  | > 32 | 8 to 32 | < 8 | > 32 | > 32 | 
4 | CC(Cc1ccc(-n2ccc(NC(=O)N3CCN(C(=O)C(C)(C)N)CC3)nc2=O)cc1)NC[C@H]1C[C@@H](N)C1 (stereo partly shown) [Compound 159] | < 0.5 | > 1 |  |  |  |  |  |  |  |  |  |  | > 32 | < 8 | < 8 | > 32 | 8 to 32 | 
5 | NC1CCCN(CCc2ccc(-n3ccc(NC(=O)N4CC5(CC(N)C5)C4)nc3=O)cc2)CC1 (stereo not shown) [Compound 193] | < 0.5 | > 1 |  |  |  |  |  | > 32 | < 8 | < 8 | > 32 | 8 to 32 |  |  |  |  |  | 
6 | CC1C[C@@H](N(C)Cc2ccc(-n3ccc(NC(=O)N4CCN(C(=O)C(C)(C)N)CC4)nc3=O)cc2)CC[C@@H]1N (stereo partly shown) [Compound 337] | < 0.5 | > 1 |  |  |  |  |  | > 32 | < 8 | < 8 | > 32 | 8 to 32 |  |  |  |  |  | 
7 | CCOC(=O)C1(CN)CN(Cc2ccc(-n3ccc(NC(=O)N4CCN(C(=O)C(C)(C)N)CC4)nc3=O)cc2)C1 [Compound 201] | > 1 | > 1 |  |  |  |  |  | > 32 | > 32 | > 32 | > 32 | > 32 |  |  |  |  |  | 
8 | C[C@@H]1CN(C(=O)Nc2ccn(-c3ccc(CCN4CCCC(N)CC4)cc3)c(=O)n2)CCN1C(=O)C(C)(C)N (stereo partly shown) [Compound 71] | < 0.5 | > 1 |  |  |  |  |  |  |  |  |  |  | 8 to 32 | < 8 | < 8 | < 8 | < 8 | 
9 | CCN(Cc1ccc(-n2ccc(NC(=O)N3CCN(C(=O)C4(N)CCC4)CC3)nc2=O)cc1)C1CCC(N)CC1 (stereo not shown) [Compound 315, hydrochloride salt] | > 1 | > 1 | > 32 | 8 to 32 | 8 to 32 | > 32 | > 32 |  |  |  |  |  |  |  |  |  |  | 
10 | CN(Cc1ccc(-n2ccc(NC(=O)N3CCN(C(=O)C(C)(C)N)CC3)nc2=O)cc1F)C1CCC(N)CC1 (stereo not shown) [Compound 278] | < 0.5 | > 1 |  |  |  |  |  | 8 to 32 | < 8 | < 8 | 8 to 32 | < 8 |  |  |  |  |  | 
11 | CC(Cc1ccc(-n2ccc(NC(=O)N3CCN(C(=O)C(C)(C)N)CC3)nc2=O)cc1)N(C)[C@H]1CC[C@@H](N)CC1 (stereo partly shown) [Compound 175] | < 0.5 | > 1 |  |  |  |  |  |  | < 8 | < 8 | > 32 | < 8 |  |  |  |  |  | ++ (An MIC value (μg/mL) that is 8 μg/mL or greater and less than 32 μg/mL)
12 | NC1CCCN(CCc2ccc(-n3ccc(NC(=O)N4CCC5(CC4)CNC5)nc3=O)cc2)CC1 (stereo not shown) [Compound 192] | > 1 | > 1 |  |  |  |  |  | > 32 | < 8 | < 8 | > 32 | 8 to 32 |  |  |  |  |  | 
13 | CC(C)(N)C(=O)N1CCN(C(=O)Nc2ccn(-c3ccc(CN(CC4CC4)C4CCC(N)CC4)c(OC(F)(F)F)c3)c(=O)n2)CC1 (stereo not shown) [Compound 331, hydrochloride salt] | < 0.5 | > 1 | > 32 | 8 to 32 | < 8 | > 32 | 8 to 32 |  |  |  |  |  |  |  |  |  |  | 
14 | CC(C)(N)C(=O)N1CCN(C(=O)Nc2ccn(-c3ccc(CCN4CCC[C@@H](CN)C4)cc3)c(=O)n2)CC1 [Compound 25] | 0.5 to 1 | > 1 |  |  |  |  |  |  |  |  |  |  | > 32 | < 8 | < 8 | > 32 | > 32 | 
15 | CCN(Cc1ccc(-n2ccc(NC(=O)N3CCN(C(=O)C(C)(C)N)CC3)nc2=O)cc1Cl)C1CCC(N)CC1 (stereo not shown) [Compound 273] | < 0.5 | > 1 |  |  |  |  |  | 8 to 32 | < 8 | < 8 | < 8 | < 8 |  |  |  |  |  | 
16 | CC(Cc1ccc(-n2ccc(NC(=O)N3CCN(C(=O)C(C)(C)N)CC3)nc2=O)cc1)N(C)[C@H]1CC[C@@H](N)C1 (stereo partly shown) [Compound 149] | < 0.5 | > 1 |  |  |  |  |  |  |  |  |  |  | > 32 | < 8 | < 8 | > 32 | 8 to 32 | 
